US7211566B2 (Universite De Sherbrooke, priority 2003, dated 2007)
Square brackets hold non-standard residues; d marks the D form. Peptide text beside a SMILES is read from it. Oic = O=C(O)[C@@H]1C[C@@H]2CCCC[C@@H]2N1; d2Nal = N[C@H](Cc1ccc2ccccc2c1)C(=O)O; αMeF = C[C@](N)(Cc1ccccc1)C(=O)O; Orn = NCCC[C@H](N)C(=O)O

Experiments:
[1] = molecular target: T1, angiotensin converting enzyme (ACE) (Oryctolagus cuniculus, UniProt P12822); assay: In vitro metabolic stability against purified rabbit lung ACE; format: in vitro ADME; details: purified angiotensin converting enzyme from rabbit lung, pH 7.5, peptide 200 μM, 60 min at 37° C., mean ± SEM of 3, read-out: Peptide metabolism (%) Rabbit lung ACE
T1 construct: In Vitro Biochemical Stability Assays Against Purified Native Enzymes; purchased Sigma, St. Louis, Mo; host or cells: rabbit lung
T1 sequence (P12822 34-1310): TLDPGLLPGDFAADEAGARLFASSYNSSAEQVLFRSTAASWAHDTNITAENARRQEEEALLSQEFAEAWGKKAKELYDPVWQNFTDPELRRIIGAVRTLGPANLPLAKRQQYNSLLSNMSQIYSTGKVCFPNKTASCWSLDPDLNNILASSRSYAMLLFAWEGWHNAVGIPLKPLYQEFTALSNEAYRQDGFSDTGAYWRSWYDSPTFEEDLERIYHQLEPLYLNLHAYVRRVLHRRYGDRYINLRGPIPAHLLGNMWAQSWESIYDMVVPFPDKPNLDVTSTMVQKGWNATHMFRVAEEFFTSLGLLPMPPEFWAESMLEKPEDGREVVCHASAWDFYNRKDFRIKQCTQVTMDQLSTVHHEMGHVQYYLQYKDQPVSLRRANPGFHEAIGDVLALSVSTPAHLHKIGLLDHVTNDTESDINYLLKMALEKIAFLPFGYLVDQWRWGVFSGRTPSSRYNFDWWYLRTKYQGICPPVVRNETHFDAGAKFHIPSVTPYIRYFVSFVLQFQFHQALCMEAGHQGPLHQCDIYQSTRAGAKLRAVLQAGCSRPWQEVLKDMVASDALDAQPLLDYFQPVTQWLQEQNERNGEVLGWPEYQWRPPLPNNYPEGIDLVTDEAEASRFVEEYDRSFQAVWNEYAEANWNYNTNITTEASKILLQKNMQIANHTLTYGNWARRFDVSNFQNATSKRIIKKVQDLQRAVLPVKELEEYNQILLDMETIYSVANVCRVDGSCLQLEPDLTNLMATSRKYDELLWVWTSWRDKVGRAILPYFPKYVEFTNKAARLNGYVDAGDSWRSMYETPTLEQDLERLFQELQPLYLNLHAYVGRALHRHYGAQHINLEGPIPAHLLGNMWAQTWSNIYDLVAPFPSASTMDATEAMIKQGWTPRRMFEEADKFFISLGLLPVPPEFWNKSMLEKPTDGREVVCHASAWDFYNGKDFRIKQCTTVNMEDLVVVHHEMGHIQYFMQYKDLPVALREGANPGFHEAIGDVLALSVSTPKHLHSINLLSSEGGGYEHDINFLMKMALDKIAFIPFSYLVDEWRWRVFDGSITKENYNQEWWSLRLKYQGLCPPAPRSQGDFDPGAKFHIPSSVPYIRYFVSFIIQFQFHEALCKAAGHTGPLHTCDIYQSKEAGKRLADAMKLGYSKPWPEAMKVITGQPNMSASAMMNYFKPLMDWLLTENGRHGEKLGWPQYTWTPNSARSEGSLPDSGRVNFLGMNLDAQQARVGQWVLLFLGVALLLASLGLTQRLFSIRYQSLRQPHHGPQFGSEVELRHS
Experimental: (§1) These assays were performed using three enzyme preparations: purified angiotensin converting enzyme (ACE; from rabbit lung), human plasma as a, source of aminopeptidase M (AmM) and human platelets as a source of aminopeptidase P (AmP).
Purified ACE from rabbit lungs (Sigma, St. Louis, Mo.) was dissolved in PBS (50 mM, pH 7.5, containing 300 mM NaCl and 10 μM ZnCl2; the final concentration of ACE was 45 μg/ml). Each of the peptide antagonists (200 μM) was incubated for 60 min at 37° C. with ACE (8.5 μl) (total volume medium, 187.5 μl). The enzymatic reaction was then terminated by boiling.
The experimental protocol for the measurement of ACE activity has been described elsewhere (Drapeau et a). 1993, J Pharmacol Exp Ther 266, 192–198; Gobeil et al., 1996, supra).

aminopeptidase M (AmM) = molecular target: T2, aminopeptidase M (AmM) (Homo sapiens, UniProt P15144); assay: In vitro metabolic stability against human plasma AmM; format: in vitro ADME; details: male, human plasma as source of aminopeptidase M, pH 7.5, peptide 200 μM, 60 min incubation, mean ± SEM of 3, read-out: Peptide metabolism (%) Human plasma AmM
T2 construct: incubated for 60 min with 50 μl of human plasma; from tissue; host or cells: human plasma from heparinized blood of healthy male volunteers
T2 sequence (P15144 whole entry): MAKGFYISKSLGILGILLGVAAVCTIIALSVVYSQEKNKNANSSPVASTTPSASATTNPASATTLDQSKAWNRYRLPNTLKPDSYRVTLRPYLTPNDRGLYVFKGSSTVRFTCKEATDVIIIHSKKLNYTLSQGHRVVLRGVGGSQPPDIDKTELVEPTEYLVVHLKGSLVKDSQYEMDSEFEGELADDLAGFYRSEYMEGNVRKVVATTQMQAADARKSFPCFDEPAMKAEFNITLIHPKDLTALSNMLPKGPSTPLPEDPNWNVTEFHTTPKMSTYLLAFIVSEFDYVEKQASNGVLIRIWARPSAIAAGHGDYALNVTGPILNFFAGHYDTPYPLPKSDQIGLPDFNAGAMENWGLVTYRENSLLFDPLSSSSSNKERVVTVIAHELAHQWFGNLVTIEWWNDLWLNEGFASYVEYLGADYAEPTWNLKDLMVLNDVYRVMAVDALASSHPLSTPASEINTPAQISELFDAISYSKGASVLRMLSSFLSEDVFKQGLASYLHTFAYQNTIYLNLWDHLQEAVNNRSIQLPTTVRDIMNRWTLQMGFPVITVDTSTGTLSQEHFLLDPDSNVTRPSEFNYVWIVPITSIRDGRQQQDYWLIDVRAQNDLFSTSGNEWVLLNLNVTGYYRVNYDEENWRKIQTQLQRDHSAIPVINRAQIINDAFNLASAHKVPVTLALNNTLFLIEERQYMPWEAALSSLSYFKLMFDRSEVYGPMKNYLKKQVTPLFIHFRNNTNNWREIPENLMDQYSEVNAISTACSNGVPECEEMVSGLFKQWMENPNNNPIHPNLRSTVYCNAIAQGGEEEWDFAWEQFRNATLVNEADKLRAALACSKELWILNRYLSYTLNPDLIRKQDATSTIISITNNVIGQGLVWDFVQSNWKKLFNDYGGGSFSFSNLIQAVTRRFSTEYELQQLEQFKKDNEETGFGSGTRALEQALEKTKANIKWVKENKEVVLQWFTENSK
Experimental: as §1
Human plasma AmM was prepared as previously described (Gobeil et al., 1999, Hypertension, 33, 823–829). Blood (5 ml) was withdrawn from healthy normotensive male Caucasian volunteers and put into heparinized tube (200 U). Blood samples were centrifuged at 1500 rpm for 15 min in a refrigerated tabletop centrifuge. The peptide antagonists (200 μM) were placed in a PBS buffer (50 mM, pH 7.5, containing 300 mM NaCl) and incubated for 60 min with 50 μl of human plasma (total volume of the medium, 375 μl). Immersing samples into boiling water and then cooling them on ice stopped the hydrolysis reaction. Control experiments have shown that ≈70% of the kininase activity that is present in the human plasma is abolished by amastatin (1 μM) and that the incubation of Lys-[Leu^8]desArg^9BK with this enzymatic preparation led to the production of [Leu^8]desArg^9BK as detected by electrospray mass spectrometry.

Row | SMILES | metabolised at 1 h, 200 µM [1] [%] | metabolised at 1 h, 200 µM (aminopeptidase M (AmM)) [%]
1 | CC[C@H](C)[C@H](NC(=O)[C@@H](Cc1ccc2ccccc2c1)NC(=O)[C@H](CO)NC(=O)[C@](C)(Cc1ccccc1)NC(=O)CNC(=O)[C@@H]1CCCN1C(=O)[C@@H]1C[C@@H]2CCCC[C@@H]2N1C(=O)[C@H](CCCNC(=N)N)NC(=O)[C@H](CCCCN)NC(C)=O)C(=O)O [Ac-Lys[Oic^2,(α-Me)Phe^5,D-βNal^7,Ile^8]desArg^9BK] (Ac-KR[Oic]PG[αMeF]S[d2Nal]I-OH) | 0 | 0
2 | CC[C@H](C)[C@H](NC(=O)[C@@H](Cc1ccc2ccccc2c1)NC(=O)[C@H](CO)NC(=O)[C@](C)(Cc1ccccc1)NC(=O)CNC(=O)[C@@H]1CCCN1C(=O)[C@@H]1C[C@@H]2CCCC[C@@H]2N1C(=O)[C@H](CCCNC(=N)N)NC(=O)[C@H](CCCN)NC(C)=O)C(=O)O [compound c, Ac-Orn[Oic^2,(α-Me)Phe^5,D-βNal^7,Ile^8]desArg^9BK] (Ac-[Orn]R[Oic]PG[αMeF]S[d2Nal]I-OH) | 0 | 0
